Article PMC10713593, “Staphylococcus aureus functional amyloids catalyze degradation of β-lactam antibiotics” (Nature Communications, 2023)
Where no end group is shown, it is not given here.

Test: Nitrocefin hydrolysis kinetics (absorbance of degraded nitrocefin at 480 nm; initial rates V0, Michaelis-Menten fit)
Format: biochemical
Details: peptide 170 µM, initial nitrocefin 107 µM (Fig. 4b)
Experimental: Nitrocefin, a β-lactam widely used as a surrogate substrate of Penicillin in β-lactamase activity assay, was used as a substrate. NC degradation was monitored for 2 h. Nitrocefin stock solution was dissolved in acetonitrile (20 mM) and then diluted with Hepes buffer (50 mM, pH 7.4) to nitrocefin concentration of 360 µM (further dilutions to lower concentrations were made with the 360 µM NC stock). All nitrocefin samples were kept on ice in cold conditions and any further dilution or mixing was performed in ice-cold conditions to avoid self-hydrolysis background reaction. […] Immediately after mixing the samples, the plate was transferred to 20̊ °C pre-cooled plate reader (Multiskan GO, Thermo Scientific, Waltham, MA) and shaken slowly for 10 s. Then, the absorbance of degraded nitrocefin was measured for 2 h at interval of 20 s at λ = 480 nm. Initial production rates (V0) were calculated by slope of the initial linear range of degraded-nitrocefin production at the first 15 min. The reported results are and average of at least five separate measurements (the exact number of repeats, N, is reported next to the values). Each experiment also included blank samples of nitrocefin substrate diluted with buffer instead of PSMα. […] The initial rate calculations were performed while also subtracting the self-degradation of the substrate, to ensure that this product absorbance is a result of PSMα presence.
The initial rates of degraded-nitrocefin production were calculated from the slopes of the first 15 min of measurement as reported above. The initial rates (V0) were fitted using non-linear regression applied with the solver function in excel, either to Michalis–Menten equation V=Vmax.[S]/(KM+S) Where Vmax. Stands for maximal reaction rate, KM stands for Michalis–Menten constant, [S] stands for the substrate molar concentration. Each initial rate value was presented as average ± SEM. The kinetic parameters were calculated by fitting the data to MM model using non-linear regression, and the confidence intervals for each parameter were calculated accordingly.

Compound | nitrocefin substrate degradation after two hours
MEFVAALFKFFKDLLGKFLGNN [α3-K6A] | minimal degradation
CSCC[C@H](NC(C)=O)C(=O)N[C@@H](CCC(=O)O)C(=O)N[C@@H](Cc1ccccc1)C(=O)N[C@H](C(=O)N[C@@H](C)C(=O)N[C@@H](CCCCN)C(=O)N[C@@H](CC(C)C)C(=O)N[C@@H](Cc1ccccc1)C(=O)N[C@@H](CCCCN)C(=O)N[C@@H](Cc1ccccc1)C(=O)N[C@@H](Cc1ccccc1)C(=O)N[C@@H](CCCCN)C(=O)N[C@@H](CC(=O)O)C(=O)N[C@@H](CC(C)C)C(=O)N[C@@H](CC(C)C)C(=O)NCC(=O)N[C@@H](CCCCN)C(=O)N[C@@H](Cc1ccccc1)C(=O)N[C@@H](CC(C)C)C(=O)NCC(=O)N[C@@H](CC(N)=O)C(=O)N[C@@H](CC(N)=O)C(=O)O)C(C)C [α3-N.Ac.] | minimal degradation
MEFVAKLFAFFKDLLGKFLGNN [α3-K9A] | minimal degradation
CSCC[C@H](N)C(=O)N[C@@H](CCC(=O)O)C(=O)N[C@@H](Cc1ccccc1)C(=O)N[C@H](C(=O)N[C@@H](C)C(=O)N[C@@H](CCCCN)C(=O)N[C@@H](CC(C)C)C(=O)N[C@@H](Cc1ccccc1)C(=O)N[C@@H](CCCCN)C(=O)N[C@@H](Cc1ccccc1)C(=O)N[C@@H](Cc1ccccc1)C(=O)N[C@@H](CCCCN)C(=O)N[C@@H](CC(=O)O)C(=O)N[C@@H](CC(C)C)C(=O)N[C@@H](CC(C)C)C(=O)NCC(=O)N[C@@H](C)C(=O)N[C@@H](Cc1ccccc1)C(=O)N[C@@H](CC(C)C)C(=O)NCC(=O)N[C@@H](CC(N)=O)C(=O)N[C@@H](CC(N)=O)C(=O)O)C(C)C [α3-K17A] | minimal degradation
MEFVAKLFKFFADLLGKFLGNN [α3-K12A] | 70%

Same assay, conditions: peptide 170 µM, initial nitrocefin 107 µM, Hepes 50 mM pH 7.4, 20 °C, first 15 min (Fig. 3f)

Compound | initial rate of nitrocefin degradation reaction (V0)
MEFVAKLFKPFKDLLGKFLGNN [α3-F10P] | lower than 15 µM/h
